This passage reports pest or weed control results from patent US20110136666A1, “CHEMICAL COMPOUNDS” (SYNGENTA CROP PROTECTION, INC., priority 2008, published 2011).

Each structure is given as a SMILES string.

Common to all, as to type: in vivo
Assay [1] concerns Alopecurus myosuroides (ALOMY). In words: Pre-emergence biological efficacy, glasshouse pot test. Particulars: 312 h, after 13 days, 100=total damage, 0=no damage, read-out: Percentage damage caused to weed species ALOMY. As to the method: (§1) Seeds of Alopecurus myosuroides (ALOMY), Setaria faberi (SETFA), Echinochloa crus-galli (ECHCG), Solanum nigrum (SOLNI), Amaranthus retroflexus (AMARE) and Ipomea hederaceae (IPOHE) were sown in standard soil in pots. After cultivation for one day under controlled conditions in a glasshouse (at 24/16° C., day/night; 14 hours light; 65% humidity), the plants were sprayed with an aqueous spray solution derived from the formulation of the technical active ingredient in acetone/water (50:50) solution containing 0.5% Tween 20 (polyoxyethylene sorbitan monolaurate, CAS RN 9005-64-5) to give a final dose of 250 or 1000 g/ha of test compound.
(§2) The test plants were then grown under controlled conditions in the glasshouse (at 24/16° C., day/night; 14 hours light; 65% humidity) and watered twice daily. After 13 days the test was evaluated (100=total damage to plant; 0=no damage to plant).

For assay [2], the system named is Ipomea hederaceae (IPOHE). The assay is described as above. Particulars: Ipomoea hederacea, 312 h, after 13 days, 100=total damage, 0=no damage, read-out: Percentage damage caused to weed species IPOHE. On the procedure: as §1, §2
Assay [3] has as its system Amaranthus retroflexus (AMARE). The assay is described as above. The settings on record: 312 h, after 13 days, 100=total damage, 0=no damage, read-out: Percentage damage caused to weed species AMARE. As to the method: as §1, §2
For assay [4], the system named is Setaria faberi (SETFA). The assay is described as above. Particulars: 312 h, after 13 days, 100=total damage, 0=no damage, read-out: Percentage damage caused to weed species SETFA. As to the method: as §1, §2
The test system of assay [5] is Echinochloa crus-galli (ECHCG). The description is as above. The settings on record: 312 h, after 13 days, 100=total damage, 0=no damage, read-out: Percentage damage caused to weed species ECHCG. On the procedure: as §1, §2
The test system of assay [6] is Solanum nigrum (SOLNI). The assay is described as above. Particulars: 312 h, after 13 days, 100=total damage, 0=no damage, read-out: Percentage damage caused to weed species SOLNI. On the procedure: as §1, §2
Assay [7] deals with Alopecurus myosuroides (ALOMY). In words: Post-emergence biological efficacy, glasshouse pot test. Particulars: 312 h, after 13 days, 100=total damage, 0=no damage, read-out: Percentage damage caused to weed species ALOMY. On the procedure: as §1, with “8 days” for “one day”
(§3) The test plants were then grown on under controlled conditions in a glasshouse (at 24/16° C., day/night; 14 hours light; 65% humidity) and watered twice daily. After 13 days the test was evaluated (100=total damage to plant; 0=no damage to plant).

Assay [8] concerns Ipomea hederaceae (IPOHE). Described as above. The settings on record: Ipomoea hederacea, 312 h, after 13 days, 100=total damage, 0=no damage, read-out: Percentage damage caused to weed species IPONE. As to the method: as §1, with “8 days” for “one day”
as §3

In assay [9] the test system is Amaranthus retroflexus (AMARE). Described as above. The settings on record: 312 h, after 13 days, 100=total damage, 0=no damage, read-out: Percentage damage caused to weed species AMARE. On the procedure: as §1, with “8 days” for “one day”
as §3

For assay [10], the system named is Setaria faberi (SETFA). Described as above. Particulars: 312 h, after 13 days, 100=total damage, 0=no damage, read-out: Percentage damage caused to weed species SETFA. On the procedure:
as §1, with “8 days” for “one day”
as §3

Assay [11] deals with Echinochloa crus-galli (ECHCG). The assay is described as above. Particulars: 312 h, after 13 days, 100=total damage, 0=no damage, read-out: Percentage damage caused to weed species ECHCG. As to the method: as §1, with “8 days” for “one day”
as §3

Assay [12] deals with Solanum nigrum (SOLNI). Described as above. The settings on record: 312 h, after 13 days, 100=total damage, 0=no damage, read-out: Percentage damage caused to weed species SOLNI. On the procedure: as §1, with “8 days” for “one day”
as §3

As for `COC(=O)c1nc(-c2ncc3ccccn23)nc(N)c1Cl` [Compound 2-146, 4-Amino-5-chloro-2-(imidazo[1,5-a]pyridin-3-yl)-6-methoxycarbonyl pyrimidine], the pest or weed control at 250 g/ha in assay [1] (250 g/ha), in assay [2] (250 g/ha), in assay [3] (250 g/ha), in [4] (250 g/ha), in [5] (250 g/ha) and in assay [6] (250 g/ha) was 0% throughout. The pest or weed control at 250 g/ha in [7] (250 g/ha) was 0%; in assay [8] (250 g/ha), 40%; in [9] (250 g/ha), 30%; in [10] (250 g/ha) it was 0%; in assay [11] (250 g/ha), 0%; in [12] (250 g/ha), 30%.
For `COC(=O)c1nc(-c2cccnc2)nc(N)c1Cl` [Compound 2-153, 4-Amino-5-chloro-6-methoxycarbonyl-2-pyridin-3-ylpyrimidine], the pest or weed control at 1000 g/ha in assay [1], in assay [2], in assay [3], in assay [4], in [5] and in assay [6] was 0% throughout. The pest or weed control at 1000 g/ha in [7], in assay [8], in assay [9], in [10], in assay [11] and in [12] was 0% throughout.
Regarding `COC(=O)c1nc(-c2cccnc2OC)nc(N)c1Cl` [Compound 2-154, 4-Amino-5-chloro-6-methoxycarbonyl-2-(2-methoxypyridin-3-yl)-pyrimidine], the pest or weed control at 1000 g/ha amounted to 0% in assay [1]; 0% in assay [2]; 0% in [3]; 0% in assay [4]; 0% in assay [5]; 20% in assay [6]. In addition, the pest or weed control at 1000 g/ha in assay [7] stood at 0%; in assay [8] it was 20%; in [9], 70%; in assay [10], 0%; in [11], 0%; in assay [12] it was 30%.
Take `COC(=O)c1nc(-c2ccc(OC)nc2)nc(N)c1Cl` [Compound 2-155, 4-Amino-5-chloro-6-methoxycarbonyl-2-(2-methoxypyridin-5-yl)-pyrimidine]: the pest or weed control at 1000 g/ha in [1] was 0%; in assay [2], 0%; in assay [3] it was 20%; in assay [4], 0%; in [5], 0%; in assay [6], 20%. Besides, the pest or weed control at 1000 g/ha in assay [7] stood at 0%; in assay [8], 70%; in assay [9], 100%; in [10], 80%; in assay [11], 80%; in assay [12], 70%.
Regarding `COC(=O)c1nc(-c2ccc(Cl)nc2)nc(N)c1Cl` [Compound 2-156, 4-Amino-5-chloro-2-(2-chloropyridin-5-yl)-6-methoxycarbonyl pyrimidine], the pest or weed control at 1000 g/ha in [1] came out at 0%; in assay [2], 0%; in [3] it was 70%; in [4], 0%; in assay [5], 0%; in assay [6], 60%. Moreover, the pest or weed control at 1000 g/ha was determined as 40% in [7]; 70% in [8]; 100% in assay [9]; 40% in assay [10]; 30% in [11]; 80% in assay [12].
With `COC(=O)c1nc(-c2ccc(F)nc2)nc(N)c1Cl` [Compound 2-157, 4-Amino-5-chloro-2-(2-fluoropyridin-5-yl)-6-methoxycarbonyl pyrimidine], the pest or weed control at 1000 g/ha in [1], in [2], in assay [3], in assay [4], in [5] and in [6] was 0% in each case. The pest or weed control at 1000 g/ha in assay [7] worked out at 30%; in [8] it was 70%; in [9] it was 60%; in assay [10] it was 20%; in [11] it was 0%; in [12], 60%.
As for `COC(=O)c1nc(-c2ccc(OC)nc2OC)nc(N)c1Cl` [Compound 2-159, 4-Amino-5-chloro-2-(2,6-dimethoxypyridin-3-yl)-6-methoxycarbonyl pyrimidine], the pest or weed control at 1000 g/ha in assay [1], in [2], in [3], in [4], in assay [5] and in assay [6] was 0% in each case. The pest or weed control at 1000 g/ha was determined as 0% in assay [7]; 10% in [8]; 100% in assay [9]; 30% in assay [10]; 10% in assay [11]; 50% in [12].
As to `COC(=O)c1nc(-c2ccc(C)nc2F)nc(N)c1Cl` [Compound 2-161, 4-Amino-5-chloro-2-(2-fluoro-6-methylpyridin-3-yl)-6-methoxycarbonyl pyrimidine], the pest or weed control at 1000 g/ha in [1] turned out to be 0%; in assay [2] it was 0%; in assay [3], 60%; in assay [4], 0%; in assay [5], 0%; in assay [6], 40%. Besides, the pest or weed control at 1000 g/ha in assay [7] worked out at 30%; in [8] it was 100%; in [9] it was 90%; in assay [10] it was 80%; in assay [11], 60%; in assay [12], 80%.
